Molecular target: T1, E3 ubiquitin-protein ligase Mdm2 [23-117] (Human, UniProt Q00987)
T1 construct: 23-117
Test: Inhibition AlphaScreen Assay
Method: A mix consisting of 20 nM GST-MDM2 protein (aa 23-117) and 20 nM biotinylated p53 wt peptide (encompassing aa 16-27 of wt human p53, amino acid sequence QETFSDLWKLLP-Ttds-Lys-Biotin, molecular weight 2132.56 g/mol) is prepared in assay buffer (50 mM Tris/HCl pH 7.2; 120 mM NaCl; 0.1% bovine serum albumin (BSA); 5 mM dithiothreitol (DTT); 1 mM ethylenediaminetetraacetic acid (EDTA); 0.01% Tween 20). 30 μL of the mix is added to the compound dilutions and incubated for 15 min at rt while gently shaking the plate at 300 rounds per minute (rpm). Subsequently, 15 μL of premixed AlphaLISA Glutathione Acceptor Beads and AlphaScreen Streptavidin Donor Beads from PerkinElmer (in assay buffer at a concentration of 10 μg/mL each) are added and the samples are incubated for 30 min at rt in the dark (shaking 300 rpm). Afterwards, the signal is measured in a PerkinElmer Envision HTS Multilabel Reader using the AlphaScreen protocol from PerkinElmer.Each plate contains negative controls where biotinylated p53-peptide and GST-MDM2 are left out and replaced by assay buffer. Negative control values are entered as low basis value when using the software GraphPad Prism for calculations.

T1 sequence (Q00987 23-117): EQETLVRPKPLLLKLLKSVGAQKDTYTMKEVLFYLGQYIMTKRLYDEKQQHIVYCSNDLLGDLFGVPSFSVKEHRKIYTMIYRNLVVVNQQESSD

IC50: 10 nM
SMILES: O=C(O)c1ccc2c(c1)nc1n2CC[C@H]2[C@@H]1[C@H](c1cccc(Cl)c1F)[C@]1(C(=O)Nc3cc(Cl)ccc31)N2CC1CC1 [US10882866, Example Ib-171]

— BindingDB's records for patent US10882866 (Boehringer Ingelheim International GmbH, 2021)
